# Results taken from patent publication US10463644B2, “Uses of sesquiterpene lactone compounds and their derivatives in drugs preparation” (ACCENDATECH, priority 2013, dated 2019).
# Legend:
# [1] = system: TNF-α secreted by synoviocyte; experiment: Content of TNF-α in culture supernatant of synoviocyte of RA model rats given test compound; assay type: in vivo; conditions: rat RA model, dose 30 mg/kg.2d; normal control 0.38 ± 0.027, NaCl 0.74 ± 0.098
# Source text: (§1) Take Compound 1-50 prepared as per the method according to the present invention and employ the method provided in Reference to prepare model, group drugs and prepare culture supernatant of rat synoviocyte.
# (§2) Employ the method provided in Reference to investigate the effects of the test compounds on the synoviocyte to secrete TNF-α and PGE2. Employ the method provided in Reference to investigate the effects of the test compounds on the synoviocyte to secrete IL-1β.
# (§3) The experimental data of the test compound 1-50 at a dose of 30 mg/kg.2d as well as the normal control and NaCl group are as follows: […]
# [2] = system: PGE2 secreted by synoviocyte; experiment: Content of PGE2 in culture supernatant of synoviocyte of RA model rats given test compound; assay type: in vivo; conditions: rat RA model, dose 30 mg/kg.2d; normal control 8.34 ± 1.29, NaCl 32.44 ± 10.32
# Source text: as §1, §2, §3
# normal cells = experiment: Survival rate of normal cells after test compound is added (flow cytometry, Annexin V-FITC/PI); assay type: cell-based
# Source text: (§4) Take fresh or cryopreserved clinical specimen (acute myelogenous leukemia (AML, marker is CD34^+/CD38^+), chronic myelogenous leukemia (CML, Ph+/CD34+/CXCR4+), chronic lymphocytic leukemia (CLL,CD133+/CD19−/CD38−), skin cancer (CD34+), breast cancer (CD44+/CD24−/ESA+), ovarian cancer (CD44+/CD117+), brain tumor (CD133+) prostate cancer (CD44+/CD24−), head-neck squamous cell carcinoma (CD44+), laryngeal cancer (CD133+), pancreatic cancer (ESA+/CD44+/CD24+), retinoblastoma (ABCG2/ALDH1), Children hepatoblastoma (CD34+/THY1+/c-kit+), liver cancer (CD133+), malignant melanoma (CD133+), colorectal cancer (EpCAM^high/CD44+), colon adenocarcinoma (CD44^high), glioma (ABCG-2/BCRP1), gastrointestinal tumor (ABCG-2/BCRP1), nasopharynx cancer (ABCG2), brain glioma (Dlk-1/Pref-1), gastric cancer (CD45+), lung adenocarcinoma (Sca-1/CD45-/Pecam-/CD34+), lung cancer (CD133+CD34+CD44+)) of patient. Take the acute myelogenous leukemia as the example, conduct density gradient centrifugation with Ficoll and take out the middle mononuclear cells, re-suspend it with serum-free IMDM after centrifuged. Adjust the concentration of cells into 1×10^6/mL and lay 24-well plate with 1 mL in each well, and then treat 18 hours with the compound to select with corresponding concentration. Collect the cells and centrifuge them at 1500 rps for 8 minutes, re-suspend the precipitation with […], mark the antibodies related to leukemia stem cell, avoid light to incubate 30 minutes at room temperature and then centrifuge it at 1500 rps, then wash away the unbound antibody CD34^+CD38^+. Re-suspend it with 100 μl 1× Binding Buffer and add respectively 5 μl Annexin V-FITC and PI, then avoid light to incubate 15 minutes before add 200 μl 1× Binding Buffer, then use flow cytometry to examine the marked apoptosis within one hour.
# [3] = system: IL-1β secreted by synoviocyte; experiment: Content of IL-1β in culture supernatant of synoviocyte of RA model rats given test compound; assay type: in vivo; conditions: rat RA model, dose 30 mg/kg.2d; normal control 0.16 ± 0.034, NaCl 0.49 ± 0.136
# Source text: as §1, §2, §3
# cancer stem cells = experiment: Survival rate of cancer stem cells after test compound is added (flow cytometry, Annexin V-FITC/PI, clinical specimen); assay type: cell-based, patient
# Source text: as §4
# cancer cells = experiment: Survival rate of cancer cells after test compound is added (flow cytometry, Annexin V-FITC/PI, clinical specimen); assay type: cell-based, patient
# Source text: as §4
# [4] = Children hepatoblastoma, 10.0 μM
# [5] = Children hepatoblastoma, 20.0 μM
# [6] = Gastrointestinal tumor, 10.0 μM
# [7] = Gastrointestinal tumor, 20.0 μM
# [8] = Head and neck squamous cell carcinomas, 10.0 μM
# [9] = Head and neck squamous cell carcinomas, 20.0 μM
smiles,measurement,setting,value
CN(C)C[C@@H]1C(=O)O[C@H]2[C@H]1CCC1(CC1)[C@@H]1CCC3(CC3)[C@H]21.Cl [Compound 28],Content of TNF-α in culture supernatant of synoviocyte (x ± s),[1],0.47 ± 0.056 ng/mL
same,Content of PGE2 in culture supernatant of synoviocyte (x ± s),[2],18.92 ± 1.98 ng/mL
same,Survival rate (%) All cells (Stem cells and ordinary cells),normal cells; 10.0 μM,96%
same,Survival rate (%) Stem cells,normal cells; 10.0 μM,94%
same,Survival rate (%) All cells (Stem cells and ordinary cells),normal cells; 20.0 μM,95%
same,Survival rate (%) Stem cells,normal cells; 20.0 μM,92%
same,Content of IL-1β in culture supernatant of synoviocyte (x ± s),[3],0.31 ± 0.067 ng/mL
same,Survival rate (%) Stem cells,"cancer stem cells; AML, 10.0 μM",87%
same,Survival rate (%) Stem cells,"cancer stem cells; AML, 20.0 μM",76%
same,Survival rate (%) Stem cells,"cancer stem cells; Brain glioma, 10.0 μM",82%
same,Survival rate (%) Stem cells,"cancer stem cells; Brain glioma, 20.0 μM",76%
same,Survival rate (%) Stem cells,"cancer stem cells; Brain tumor, 10.0 μM",82%
same,Survival rate (%) Stem cells,"cancer stem cells; Brain tumor, 20.0 μM",73%
same,Survival rate (%) Stem cells,"cancer stem cells; Breast cancer, 10.0 μM",81%
same,Survival rate (%) Stem cells,"cancer stem cells; Breast cancer, 20.0 μM",75%
same,Survival rate (%) Stem cells,"cancer stem cells; CLL, 10.0 μM",82%
same,Survival rate (%) Stem cells,"cancer stem cells; CLL, 20.0 μM",73%
same,Survival rate (%) Stem cells,"cancer stem cells; CML, 10.0 μM",85%
same,Survival rate (%) Stem cells,"cancer stem cells; CML, 20.0 μM",77%
same,Survival rate (%) Stem cells,cancer stem cells; [4],85%
same,Survival rate (%) Stem cells,cancer stem cells; [5],77%
same,Survival rate (%) Stem cells,"cancer stem cells; Colon adenocarcinoma, 10.0 μM",82%
same,Survival rate (%) Stem cells,"cancer stem cells; Colon adenocarcinoma, 20.0 μM",74%
same,Survival rate (%) Stem cells,"cancer stem cells; Colorectal cancer, 10.0 μM",81%
same,Survival rate (%) Stem cells,"cancer stem cells; Colorectal cancer, 20.0 μM",75%
same,Survival rate (%) Stem cells,"cancer stem cells; Gastric cancer, 10.0 μM",79%
same,Survival rate (%) Stem cells,"cancer stem cells; Gastric cancer, 20.0 μM",72%
same,Survival rate (%) Stem cells,cancer stem cells; [6],82%
same,Survival rate (%) Stem cells,cancer stem cells; [7],76%
same,Survival rate (%) Stem cells,"cancer stem cells; Glioma, 10.0 μM",85%
same,Survival rate (%) Stem cells,"cancer stem cells; Glioma, 20.0 μM",79%
same,Survival rate (%) Stem cells,cancer stem cells; [8],81%
same,Survival rate (%) Stem cells,cancer stem cells; [9],75%
same,Survival rate (%) Stem cells,"cancer stem cells; Laryngeal cancer, 10.0 μM",85%
same,Survival rate (%) Stem cells,"cancer stem cells; Laryngeal cancer, 20.0 μM",77%
same,Survival rate (%) Stem cells,"cancer stem cells; Liver cancer, 10.0 μM",82%
same,Survival rate (%) Stem cells,"cancer stem cells; Liver cancer, 20.0 μM",73%
same,Survival rate (%) Stem cells,"cancer stem cells; Lung adenocarcinoma, 10.0 μM",88%
same,Survival rate (%) Stem cells,"cancer stem cells; Lung adenocarcinoma, 20.0 μM",81%
same,Survival rate (%) Stem cells,"cancer stem cells; Lung cancer, 10.0 μM",87%
same,Survival rate (%) Stem cells,"cancer stem cells; Lung cancer, 20.0 μM",76%
same,Survival rate (%) Stem cells,"cancer stem cells; Malignant melanoma, 10.0 μM",84%
same,Survival rate (%) Stem cells,"cancer stem cells; Malignant melanoma, 20.0 μM",78%
same,Survival rate (%) Stem cells,"cancer stem cells; Nasopharynx cancer, 10.0 μM",85%
same,Survival rate (%) Stem cells,"cancer stem cells; Nasopharynx cancer, 20.0 μM",77%
same,Survival rate (%) Stem cells,"cancer stem cells; Ovarian cancer, 10.0 μM",85%
same,Survival rate (%) Stem cells,"cancer stem cells; Ovarian cancer, 20.0 μM",79%
same,Survival rate (%) Stem cells,"cancer stem cells; Pancreatic cancer, 10.0 μM",86%
same,Survival rate (%) Stem cells,"cancer stem cells; Pancreatic cancer, 20.0 μM",78%
same,Survival rate (%) Stem cells,"cancer stem cells; Prostate cancer, 10.0 μM",84%
same,Survival rate (%) Stem cells,"cancer stem cells; Prostate cancer, 20.0 μM",78%
same,Survival rate (%) Stem cells,"cancer stem cells; Retinoblastoma, 10.0 μM",84%
same,Survival rate (%) Stem cells,"cancer stem cells; Retinoblastoma, 20.0 μM",80%
same,Survival rate (%) Stem cells,"cancer stem cells; Skin cancer, 10.0 μM",84%
same,Survival rate (%) Stem cells,"cancer stem cells; Skin cancer, 20.0 μM",78%
same,Survival rate (%) All cells (Stem cells and ordinary cells),"cancer cells; AML, 10.0 μM",94%
same,Survival rate (%) All cells (Stem cells and ordinary cells),"cancer cells; AML, 20.0 μM",87%
same,Survival rate (%) All cells (Stem cells and ordinary cells),"cancer cells; Brain glioma, 10.0 μM",89%
same,Survival rate (%) All cells (Stem cells and ordinary cells),"cancer cells; Brain glioma, 20.0 μM",86%
same,Survival rate (%) All cells (Stem cells and ordinary cells),"cancer cells; Brain tumor, 10.0 μM",91%
same,Survival rate (%) All cells (Stem cells and ordinary cells),"cancer cells; Brain tumor, 20.0 μM",87%
same,Survival rate (%) All cells (Stem cells and ordinary cells),"cancer cells; Breast cancer, 10.0 μM",87%
same,Survival rate (%) All cells (Stem cells and ordinary cells),"cancer cells; Breast cancer, 20.0 μM",83%
same,Survival rate (%) All cells (Stem cells and ordinary cells),"cancer cells; CLL, 10.0 μM",91%
same,Survival rate (%) All cells (Stem cells and ordinary cells),"cancer cells; CLL, 20.0 μM",87%
same,Survival rate (%) All cells (Stem cells and ordinary cells),"cancer cells; CML, 10.0 μM",92%
same,Survival rate (%) All cells (Stem cells and ordinary cells),"cancer cells; CML, 20.0 μM",89%
same,Survival rate (%) All cells (Stem cells and ordinary cells),cancer cells; [4],92%
same,Survival rate (%) All cells (Stem cells and ordinary cells),cancer cells; [5],89%
same,Survival rate (%) All cells (Stem cells and ordinary cells),"cancer cells; Colon adenocarcinoma, 10.0 μM",88%
same,Survival rate (%) All cells (Stem cells and ordinary cells),"cancer cells; Colon adenocarcinoma, 20.0 μM",85%
same,Survival rate (%) All cells (Stem cells and ordinary cells),"cancer cells; Colorectal cancer, 10.0 μM",87%
same,Survival rate (%) All cells (Stem cells and ordinary cells),"cancer cells; Colorectal cancer, 20.0 μM",83%
same,Survival rate (%) All cells (Stem cells and ordinary cells),"cancer cells; Gastric cancer, 10.0 μM",88%
same,Survival rate (%) All cells (Stem cells and ordinary cells),"cancer cells; Gastric cancer, 20.0 μM",81%
same,Survival rate (%) All cells (Stem cells and ordinary cells),cancer cells; [6],88%
same,Survival rate (%) All cells (Stem cells and ordinary cells),cancer cells; [7],89%
same,Survival rate (%) All cells (Stem cells and ordinary cells),"cancer cells; Glioma, 10.0 μM",93%
same,Survival rate (%) All cells (Stem cells and ordinary cells),"cancer cells; Glioma, 20.0 μM",86%
same,Survival rate (%) All cells (Stem cells and ordinary cells),cancer cells; [8],87%
same,Survival rate (%) All cells (Stem cells and ordinary cells),cancer cells; [9],83%
same,Survival rate (%) All cells (Stem cells and ordinary cells),"cancer cells; Laryngeal cancer, 10.0 μM",92%
same,Survival rate (%) All cells (Stem cells and ordinary cells),"cancer cells; Laryngeal cancer, 20.0 μM",89%
same,Survival rate (%) All cells (Stem cells and ordinary cells),"cancer cells; Liver cancer, 10.0 μM",91%
same,Survival rate (%) All cells (Stem cells and ordinary cells),"cancer cells; Liver cancer, 20.0 μM",87%
same,Survival rate (%) All cells (Stem cells and ordinary cells),"cancer cells; Lung adenocarcinoma, 10.0 μM",91%
same,Survival rate (%) All cells (Stem cells and ordinary cells),"cancer cells; Lung adenocarcinoma, 20.0 μM",89%
same,Survival rate (%) All cells (Stem cells and ordinary cells),"cancer cells; Lung cancer, 10.0 μM",94%
same,Survival rate (%) All cells (Stem cells and ordinary cells),"cancer cells; Lung cancer, 20.0 μM",87%
same,Survival rate (%) All cells (Stem cells and ordinary cells),"cancer cells; Malignant melanoma, 10.0 μM",91%
same,Survival rate (%) All cells (Stem cells and ordinary cells),"cancer cells; Malignant melanoma, 20.0 μM",88%
same,Survival rate (%) All cells (Stem cells and ordinary cells),"cancer cells; Nasopharynx cancer, 10.0 μM",92%
same,Survival rate (%) All cells (Stem cells and ordinary cells),"cancer cells; Nasopharynx cancer, 20.0 μM",89%
same,Survival rate (%) All cells (Stem cells and ordinary cells),"cancer cells; Ovarian cancer, 10.0 μM",88%
same,Survival rate (%) All cells (Stem cells and ordinary cells),"cancer cells; Ovarian cancer, 20.0 μM",85%
same,Survival rate (%) All cells (Stem cells and ordinary cells),"cancer cells; Pancreatic cancer, 10.0 μM",93%
same,Survival rate (%) All cells (Stem cells and ordinary cells),"cancer cells; Pancreatic cancer, 20.0 μM",92%
same,Survival rate (%) All cells (Stem cells and ordinary cells),"cancer cells; Prostate cancer, 10.0 μM",91%
same,Survival rate (%) All cells (Stem cells and ordinary cells),"cancer cells; Prostate cancer, 20.0 μM",88%
same,Survival rate (%) All cells (Stem cells and ordinary cells),"cancer cells; Retinoblastoma, 10.0 μM",90%
same,Survival rate (%) All cells (Stem cells and ordinary cells),"cancer cells; Retinoblastoma, 20.0 μM",85%
same,Survival rate (%) All cells (Stem cells and ordinary cells),"cancer cells; Skin cancer, 10.0 μM",91%
same,Survival rate (%) All cells (Stem cells and ordinary cells),"cancer cells; Skin cancer, 20.0 μM",88%
